Results from patent publication US6492380B1, “Method of inhibiting neurotrophin-receptor binding” (Queen's University at Kingston, priority 1999, dated 2002).

Legend:
[1] = tested on: T1, PC12 cells expressing TrkA and p75^NTR; assay: 125I-NGF receptor binding inhibition, PC12 cells; set-up: species or system rat; conditions: compound 50 μM; 125I-NGF 1 nM; 2 h at 4° C.; value is mean of the three replicates
T1 construct: host or cells: PC12 (rat pheochromocytoma)
Protocol: (§1) The radio-iodination and receptor binding of NGF (Sutter et al., 1979) was performed with modifications (Ross et al., 1997) as follows: Evaluation of the ability of NCP compounds to inhibit TrkA and p75^NTR binding was determined by the binding of ^125I-NGF to PC12 cells (rat pheochromocytoma cells expressing TrkA and p75^NTR obtained from ATCC) and PC12^nnr5 (rat pheocliromocytoma cells expressing p75^NTR only; obtained from Dr. L. Greene, Columbia University, NY). The p75^NTR is in a low affinity state and a high affinity state, respectively, in these cell types (Ross et al., 1998). PC12 and PC12^nnr5 cells were grown in RPMI (Sigma) with 10% heat inactivated donor horse serum and 5% fetal calf serum. Cells were harvested by replacing the medium with calcium, magnesium-free balanced salt solution (Gey's solution) and incubating at 37° C. for 15 minutes. Cells were pelleted by centrifugation and suspended in HKR buffer (10 mM Hepes [pH 7.35] containing 125 mM NaCl, 4.8 mM KCl, 1.3 mM CaCl2, 1.2 mM MgSO4, 1.2 mM KH2PO4, 1 g/L glucose and 1 g/L BSA) at a cell concentration of 2×10^6/mL and kept at 4° C. Triplicate tubes were set up for total binding, non-specific binding and binding in the presence of candidate competitor molecule (i.e., a tube for each data point). Each tube contained ^125I-NGF (at 1 nM), 400,000 cells (for a final cell concentration of 10^6/mL) and NGF (50 nM, to define non-specific binding), as required. The tubes were incubated for 2 h at 4° C. and specific binding evaluated by measuring specifically bound DPM (Ross et al., 1997). Data were analysed and the results expressed as receptor binding observed in the presence of competitor as a percentage of receptor binding in the absence of a competitor.

[2] = tested on: T2, PC12^nnr5 cells expressing p75^NTR only; assay: 125I-NGF receptor binding inhibition, PC12^nnr5 cells; set-up: species or system rat; conditions: compound 50 μM; 125I-NGF 1 nM; 2 h at 4° C.; value is mean of the three replicates
T2 construct: PC12^nnr5 (rat pheocliromocytoma cells expressing p75^NTR only; obtained from Dr. L. Greene, Columbia University, NY); host or cells: PC12nnr5 (rat pheochromocytoma subline)
Protocol: as §1

[3] = @ 100 μM DMSO

T2 sequence (P01139 122-241): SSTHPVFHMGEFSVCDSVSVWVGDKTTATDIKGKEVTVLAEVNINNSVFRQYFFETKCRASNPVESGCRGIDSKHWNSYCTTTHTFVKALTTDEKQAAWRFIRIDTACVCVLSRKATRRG
T1 sequence (P01139 122-241): as above

| Structure (SMILES) | PC12 % of Max (receptor binding in presence of competitor as percentage of binding in absence of competitor) [1] | nnr5 % of Max (receptor binding in presence of competitor as percentage of binding in absence of competitor) [2] | Solubility [3] |
| --- | --- | --- | --- |
| O=C(O)CN1C(=O)c2cccc3cc([N+](=O)[O-])cc(c23)C1=O [Compound 200, N-(1-carboxymethyl)-3-nitro-1,8-naphthalimide; 2-(1-carboxymethyl)-5-nitrobenzo[d,e]isoquinoline-1,3-dione] | 92, 87, 74 = 84 % of Max | 58, 63, 64 = 62 % of Max |  |
| O=C(O)CCN1C(=O)c2cccc3cc([N+](=O)[O-])cc(c23)C1=O [Compound 201, N-(2-carboxyethyl)-3-nitro-1,8-naphthalimide; 2-(2-carboxyethyl)-5-nitrobenzo[d,e]isoquinoline-1,3-dione] | 27, 32, 41 = 33 % of Max | 30, 4, 34 = 23 % of Max |  |
| O=C(O)CCCN1C(=O)c2cccc3cc([N+](=O)[O-])cc(c23)C1=O [Compound 202, N-(3-carboxypropyl)-3-nitro-1,8-naphthalimide; 2-(3-carboxypropyl)-5-nitrobenzo[d,e]isoquinoline-1,3-dione] | 21, 22, 30 = 24 % of Max | 16, 0, 0 = 5 % of Max |  |
| O=C(O)CCCCN1C(=O)c2cccc3cc([N+](=O)[O-])cc(c23)C1=O [Compound 203, N-(4-carboxybutyl)-3-nitro-1,8-naphthalimide; 2-(4-carboxybutyl)-5-nitrobenzo[d,e]isoquinoline-1,3-dione] | 36, 41, 35 = 37 % of Max | 33, 0, 18 = 17 % of Max |  |
| O=C(O)CCCCCN1C(=O)c2cccc3cc([N+](=O)[O-])cc(c23)C1=O [Compound 204, N-(5-carboxypentyl)-3-nitro-1,8-naphthalimide; 2-(5-carboxypentyl)-5-nitrobenzo[d,e]isoquinoline-1,3-dione] | 41, 41, 36 = 39 % of Max | 12, 0, 47 = 20 % of Max |  |
| O=C(O)CN1C(=O)c2cccc3c([N+](=O)[O-])ccc(c23)C1=O [Compound 220, N-(1-carboxymethyl)-4-nitro-1,8-naphthalimide; 2-(1-carboxymethyl)-6-nitrobenzo[d,e]isoquinoline-1,3-dione] | 37, 43, 49 = 43 % of Max | 21, 17, 26 = 21 % of Max | 220 NS (NS: Not Soluble @ 100 μM DMSO) |
| O=C(O)CCN1C(=O)c2cccc3c([N+](=O)[O-])ccc(c23)C1=O [Compound 221, N-(2-carboxyethyl)-4-nitro-1,8-naphthalimide; 2-(2-carboxyethyl)-6-nitrobenzo[d,e]isoquinoline-1,3-dione] | 29, 32, 31 = 31 % of Max | 41, 37, 42 = 40 % of Max |  |
| O=C(O)CCCN1C(=O)c2cccc3c([N+](=O)[O-])ccc(c23)C1=O [Compound 222, N-(3-carboxypropyl)-4-nitro-1,8-naphthalimide; 2-(3-carboxypropyl)-6-nitrobenzo[d,e]isoquinoline-1,3-dione] |  |  | 222 NS (NS: Not Soluble @ 100 μM DMSO) |
| O=C(O)CCCCN1C(=O)c2cccc3c([N+](=O)[O-])ccc(c23)C1=O [Compound 223, N-(4-carboxybutyl)-4-nitro-1,8-naphthalimide; 2-(4-carboxybutyl)-6-nitrobenzo[d,e]isoquinoline-1,3-dione] | 27, 33, 33 = 31 % of Max | 40, 41, 47 = 43 % of Max |  |
| O=C(O)CCCCCN1C(=O)c2cccc3c([N+](=O)[O-])ccc(c23)C1=O [Compound 224, N-(5-carboxypentyl)-4-nitro-1,8-naphthalimide; 2-(5-carboxypentyl)-6-nitrobenzo[d,e]isoquinoline-1,3-dione] | 31, 34, 22 = 29 % of Max | 36, 35, 39 = 36 % of Max |  |
